According to patent US12551576B2, “Chemiluminescent probes” (The General Hospital Corporation, priority 2020, dated 2026):

What was measured:
human serum albumin = human serum albumin (Homo sapiens, UniProt P02768); test: Aβ aggregates incubated with human serum albumin
Aβ40 aggregates = Aβ40 aggregates (Homo sapiens, UniProt P05067); test: In vitro fluorescence spectral testing of ADLumin-1 with Aβ40 aggregates; assay type: binding
[1] = biological target: Aβ aggregates in mouse brain homogenate (Homo sapiens, UniProt P05067); test: In vitro chemiluminescence study in brain homogenate; assay type: binding
Chain of Aβ aggregates in mouse brain homogenate (P05067 672-711 limits assumed): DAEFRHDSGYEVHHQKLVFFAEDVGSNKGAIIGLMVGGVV

PA-K2 = test: Chemiluminescence detection of model beta-sheet aggregates (PA-K2); assay type: binding
[2] = Fluorescence and chemiluminescence spectral studies; assay type: physicochemical
Method: Materials and Methods: reagents used for the synthesis were purchased from Sigma-Aldrich and used without further purification. Column chromatography was performed on a glass column slurry-packed with silica gel (60 Å, […]; SiliCycle Inc.). Recombinant Aβ peptide (1-40/42) were purchased from rPeptide (A-1163-1). Aβ aggregates for in vitro studies were generated by slow stirring of Aβ40 in PBS buffer for 3 days at room temperature. ^1H and ^13C NMR spectra were recorded at 500 MHz and 125 MHz on Bruker spectrometers in CDCl3, CD3OD or DMSO-d6 solutions at room temperature with tetramethylsilane (TMS, δ=0) as an internal standard. Liquid chromatography-mass spectrometry (LC-MS) was performed using an Agilent 1200 Series apparatus with an LC/MSD trap and Daly conversion dynode detector with UV detection at 254 nm. Fluorescence measurements were carried out using an F-7100 fluorescence spectrophotometer (Hitachi). Transgenic female 5×FAD mice and age-matched wild-type female mice were purchased from Jackson Laboratory. All animal experiments were approved by the Institutional Animal Use and Care Committee at Massachusetts General Hospital. The IVIS Spectrum animal imaging system (PerkinElmer) was used for in vitro and in vivo imaging.
Fluorescence spectral studies: Normally, all chemiluminescent molecules are fluorescent. The excitation and emission spectra of ADLumin-X were recorded and the emission peak of ADLumin-1 was around 590 nm (FIG. 1D) in DMSO, which is considerably longer than most of the commercially available chemiluminescence probes. The emission of ADLumin-2 is longer than that of ADLumin-1, due to its additional double-bond. (the emission peak of ADLumin-2 was 20 nm longer). […] Based on this fact, ADLumin-1 was used throughout this example, due to its high QY.
Chemiluminescence spectral studies: ADLumin-1 is stable in PBS buffer and organic solvents, including acetonitrile, dichloromethane and methanol. […] Without being bound by any theory, it is believed that the luminescence was due to the auto-oxidation of ADLumin-1. Although the mechanism of chemiluminescence of IPO derivatives has been studied, the mechanism of auto-oxidation has been rarely explored. In the course of the experiments, ADLumin-1 emitted very strong luminescence in pure DMSO (FIG. 2b). Unexpectedly, if the ADLumin-1 DMSO solution was stirred, even stronger luminescence can be detected (3.4-fold in FIG. 2b). Without being bound by any theory, it is believed that the luminescence was related to oxygen levels in DMSO. […] However, the increasing-fold decreased with cycles (FIG. 2c). […] Since no ROS were added into the DMSO solution, it is reasonable to infer that the auto-oxidation of ADLumin-1 was oxygen-level dependent. It is worthy to note that green fluorescent protein and luciferase/luciferin also dependent on oxygen for their proper imaging functions.

Immunoglobulin G (IgG) = test: Aβ aggregates incubated with IgG
Tau = test: Chemiluminescence with misfoldon aggregates in PBS (Tau); assay type: binding; details: ADLumin-1 2.5 μM, Tau aggregates 2.5 μM
insulin = biological target: T1, insulin (Homo sapiens, UniProt P01308); test: Chemiluminescence with misfoldon aggregates in PBS (insulin); assay type: binding
T1 construct: immunoglobulin G (IgG), proinsulin, insulin, and apolipoprotein A-I (APO)
T1 sequence (P01308 25-54 limits assumed, species assumed): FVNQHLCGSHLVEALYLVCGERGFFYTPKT
T1 sequence (P01308 90-110 limits assumed, species assumed): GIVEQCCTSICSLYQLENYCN

[3] = Oxygen sensitivity of ADLumin-1; assay type: physicochemical
Method: Oxygen and ROS sensitivity of ADLumin-1: A 100.0 μL DMSO solution of ADLumin-1 (200.0 μM) was added to a well in a 96-well plate. One group was bubbled with oxygen for 5 seconds at different time points, and the control group was sealed without bubbling. Once the bubbling was over, the plate was subjected to chemiluminescence intensity recording with the IVIS system with the open filter setting (500 nm-840 nm). For ROS tests, A PBS solution (240 μL) was incubated in an Eppendorf tube. To each of above tubes, different ROS (H2O2 30 μL, […] 30 μL, TBHP 30 μL and KO2 30 μL) was added, respectively. Then, a solution of ADLumin-1 in DMSO (30 μL, 250.0 μM) was added. Finally, 100.0 μL of the resulting solution was transferred into a well of 96-well plate, and triplicated samples were prepared. Chemiluminescence images were obtained with an IVIS system under the open filter (500 nm-840 nm).

[4] = chemiluminescence / bioluminescence spectra

Chain of Aβ40 aggregates (P05067 672-711 limits assumed): as the sequence (P05067 672-711 limits assumed) above
Chain of human serum albumin (P02768 25-609): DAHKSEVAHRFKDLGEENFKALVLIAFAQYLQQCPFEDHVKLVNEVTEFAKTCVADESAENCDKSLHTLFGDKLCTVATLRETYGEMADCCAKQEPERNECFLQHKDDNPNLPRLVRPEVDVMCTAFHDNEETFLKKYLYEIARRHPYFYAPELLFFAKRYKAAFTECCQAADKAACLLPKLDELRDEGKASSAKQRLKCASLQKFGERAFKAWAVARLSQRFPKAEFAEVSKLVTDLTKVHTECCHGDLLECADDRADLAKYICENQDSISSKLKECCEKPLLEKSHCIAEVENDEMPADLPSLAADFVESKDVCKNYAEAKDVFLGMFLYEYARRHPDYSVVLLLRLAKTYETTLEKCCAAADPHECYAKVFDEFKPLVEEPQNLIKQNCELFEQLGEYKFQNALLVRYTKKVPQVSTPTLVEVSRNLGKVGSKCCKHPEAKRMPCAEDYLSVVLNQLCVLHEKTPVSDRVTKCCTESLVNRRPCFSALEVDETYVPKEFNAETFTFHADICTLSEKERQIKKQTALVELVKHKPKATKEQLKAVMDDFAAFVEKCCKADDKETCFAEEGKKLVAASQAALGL

Cc1nc2c[nH]c(/C=C/C=C/c3ccc(N(C)C)cc3)cn-2c1=O [ADLumin-1, 6-((1E,3E)-4-(4-(dimethylamino)phenyl)buta-1,3-dien-1-yl)-2-methylimidazo[1,2-a]pyrazin-3(7H)-one]
difference between Aβ/albumin and albumin only group (human serum albumin): no significant differences | fluorescence intensity increasing upon mixing with Aβs (Aβ40 aggregates): 100 fold | shift of fluorescence emission of the probe with Aβs (Aβ40 aggregates): significant blue-shift | Aβ concentration range with linear intensity increase [1]: 0 to 12.5 µM | chemiluminescence signal, Aβ group vs no Aβ ([1]; Aβ aggregates 12.5 μM): about 11.6 fold | intensity ratio of PA-K2/PA-K (PA-K2): about 47.5 fold | low limit of detection (LOD) lower than that of ThT (PA-K2): 100 fold | chemiluminescence signal increase vs ADLumin-1 only in PBS (PA-K2; ADLumin-1 2.5 μM, PA-K2 0.5 mg/ml, PBS): 101 fold | peptide concentration range of concentration dependent intensity (PA-K2; PA-K2 and PA-E2): 0.001 to 1.0 mg/mL | peptide concentration at which PA-K and PA-K2 are differentiated (PA-K2; chemiluminescence): 0.001 mg/mL | ADLumin-1 concentration range of linear response (PA-K2; with 0.5 mg/ml PA-K2): 0.001 to 0.1 mg/mL | stability ([2]; PBS buffer and organic solvents, including acetonitrile, dichloromethane and methanol): stable | emission peak (FWHM comparison) [2, 4]: 540 nm | full width at half-maximum (FWHM) [2, 4]: 94 nm | fluorescence emission peak ([2]; in DMSO): around 590 nm | chemiluminescence emission peak ([2]; in the presence of 10% DMSO): around 540 nm | chemiluminescence intensity IgG/Aβ group vs IgG group (Immunoglobulin G (IgG); incubation 30 minutes): 1.81 fold | chemiluminescence intensity IgG/Aβ group vs IgG group (Immunoglobulin G (IgG); incubation 60 minutes): 1.71 fold | chemiluminescence intensity IgG/Aβ group vs IgG group (Immunoglobulin G (IgG); incubation 120 minutes): 2.55 fold | largest chemiluminescence difference with aggregates (Tau): 7.02 fold | largest chemiluminescence difference with aggregates (insulin; ADLumin-1 2.5 μM, insulin aggregates 2.5 μM, PBS): 10.8 fold | signal decay T½ (insulin; with insulin aggregates): > 60 min | response time to O2 [3]: within seconds | luminescence increase after stirring ([3]; ADLumin-1 DMSO solution): 3.4 fold | chemiluminescence intensity increase after O2 bubbling ([3]; DMSO solution, after first 5 seconds bubbling): 27 fold
